Laboratory results reported in patent publication US5227385A, “Method for treatment of neurodegenerative diseases” (priority 1992, dated 1993).

Assays:
[1] = test system: synaptosomes from the striatal area of rat brain (dopamine release); experiment: [3H]-dopamine release from striatal synaptosomes of rat brain; format: cell-based, rat (Sprague-Dawley); conditions: evaluated as described in Example 1
Procedure: Dopamine release was measured by preparing synaptosomes from the striatal area of rat brain generally obtained from Sprague-Dawley rats according to the procedures set forth by Nagy, et al., J. Neurochem., Vol. 43, pp. 1114-1123 (1984). Striata from 4 rats were homogenized in 2 ml of 0.32M sucrose buffered with 5 mM HEPES (pH 7.5), using a glass-teflon tissue grinder. The homogenate was diluted to 5 ml with additional homogenization solution and centrifuged at 1000×g for 10 min. This procedure was repeated on the new pellet and the resulting supernatant was centrifuged at 12,000×g for 20 min. […] Using this method, 30 to 90 percent of the dopamine was taken up into the synaptosomes, as determined by scintillation counting following filtration through glass fiber filters soaked with 0.5 percent polyethyleneimine. […] After the addition of a 0.2 ml of a 20 μM solution of ligand, the perfusate was collected into scintillation vials at 1 min. intervals and the dopamine released was quantified by scintillation counting. Peaks of radioactivity released above background were summed and the average basal release during that time was subtracted from the total. Release was expressed as a percentage of release obtained with an equal concentration of (S)-(-)-nicotine.

[2] = target: nicotinic cholinergic receptors; experiment: Inhibition of L-[3H]nicotine binding to mouse brain membranes; set-up: species or system mouse (DBA strain); conditions: racemic mixture of ligand, 10 nM L-[3H]nicotine, 2 hr, 4° C.
Procedure: Mice (DBA strain) were maintained on a 12 hour light/dark cycle and were allowed free access to water and food supplied by Wayne Lab Blox, Madison, Wis. Animals used in the present studies were 60 to 90 days of age and weighed 20 to 25 g. Brain membrane preparations were obtained from pooled brain tissue of both males and females.
Mice were killed by cervical dislocation. Brains were removed and placed on an ice-cold platform. […] Protein was determined by the method of Lowry, et al., J. Biol. Chem., Vol. 193, pp. 265-275 (1951), using bovine serum albumin as the standard.
The binding of L-[^3 H]nicotine was measured using a modification of the method of Romano, et al., Science, Vol. 210, pp. 647-650 (1980) as described previously by Marks, et al., Mol. Pharmacol., Vol. 30, pp. 427-436 (1986). The binding of L-[^3 H]nicotine was measured using a 2 hr. incubation at 4° C. […] Nonspecific binding was determined by inclusion of 10 μM nonradioactive nicotine in the incubations. The inhibition of L-[^3 H]nicotine binding by test compounds was determined by including one of eight different concentrations of the test compound in the incubation. […] Inhibition constants (Ki values) were calculated from the IC50 values using the method of Cheng, et al., Biochem. Pharmacol., Vol. 22, pp. 3099-3108 (1973). […]

[3] = test system: nicotinic cholinergic receptors; conditions: chronic administration to animals; cited from earlier work
[4] = test system: acetylcholine release in brain tissue; conditions: direct action; cited from earlier work
[5] = in vivo; cited from earlier work
[6] = test system: nicotinic cholinergic receptors; conditions: acute administration; cited from earlier work

For `CC(=O)C1=C(C)CC2CCC1N2` (stereo not drawn) [Example 2, 2-acetyl-3-methyl-8-azabicyclo[3.2.1]oct-2-ene], the “dopamine release (in words)” value [1] was “found to provide dopamine release”.

In the case of `CC(=O)C1=C(C)CC2CCC1N2C` (stereo not drawn) [Example 3, 2-acetyl-3,8-dimethyl-8-azabicyclo[3.2.1]oct-2-ene], the “dopamine release (in words)” value [1] is reported as “found to provide dopamine release”.

In the case of `CC(=O)C1=CCC2CCC1N2C` (stereo not drawn) [Ferruginine, ferruginine], the Ki [2] is reported as 3100 ± 500 nM.

`CC(=O)C1=CCC2CCC1N2` (stereo not drawn) [Norferruginine, norferruginine] gave a Ki [2] of 1100 ± 300 nM.

In the case of `CN1CCCC1c1cccnc1` (stereo not drawn) [nicotine], the “number of nicotinic cholinergic receptors” value [3] is listed as “elicit an increase in the number of such receptors”, the “release of acetylcholine in brain tissue” value [4] is listed as “elicit the release of acetylcholine in brain tissue” and the attention [5] is listed as “enhance attention”. For the same compound, the cognitive functions [5] was “improve cognitive functions” and the “activation of nicotinic cholinergic receptors” value [6] was “suggested to possess an ability to activate nicotinic cholinergic receptors”.
